The text below walks through data of patent publication US9475816B2, “Substituted-1,4-dihydropyrazolo[4,3-b]indoles” (TAKEDA PHARMACEUTICAL COMPANY LIMITED, priority 2012, dated 2016).

Experiment [1] has as its target T1, human MetAP2 enzyme (Homo sapiens, UniProt P50579). Kind of experiment: MetAP2 enzyme assay, MetAP2 enzyme complexed with cobalt ions. The following applies: MetAP2 Co pIC50, 10 μM CoCl2; -log(IC50), IC50 molar.
Experiment [2] has as its target T1, human MetAP2 enzyme. The experiment is described as follows: MetAP2 enzyme assay, MetAP2 enzyme complexed with manganese ions. The following applies: MetAP2 Mn pIC50, 10 μM MnCl2; -log(IC50), IC50 molar.
Procedure: DNA encoding the full-length sequence of human MetAP2 enzyme is amplified by PCR and cloned into a pFastBac expression vector (Invitrogen). Recombinant baculovirus incorporating the MetAP2 construct is generated by transposition using the Bac-to-Bac system (Invitrogen). The expression of recombinant protein is carried out by infection of Spodoptera frugiperda Sf9 cells (Invitrogen) in 5L Wave Bioreactors (Wave Biotech). Recombinant protein is isolated from cellular extracts by binding to an SP Hitrap Fast Flow or SP Sepharose (Sigma) column, and the protein is eluted using a NaCl gradient. Partially purified extracts of MetAP2 are further purified by an AKTA FPLC over a Superdex-200 column (GE). The purity of MetAP2 protein is determined on denaturing SDS-PAGE gel.
The results for each well are expressed as percent inhibition and calculated using the equation:

T1 sequence (P50579 whole entry): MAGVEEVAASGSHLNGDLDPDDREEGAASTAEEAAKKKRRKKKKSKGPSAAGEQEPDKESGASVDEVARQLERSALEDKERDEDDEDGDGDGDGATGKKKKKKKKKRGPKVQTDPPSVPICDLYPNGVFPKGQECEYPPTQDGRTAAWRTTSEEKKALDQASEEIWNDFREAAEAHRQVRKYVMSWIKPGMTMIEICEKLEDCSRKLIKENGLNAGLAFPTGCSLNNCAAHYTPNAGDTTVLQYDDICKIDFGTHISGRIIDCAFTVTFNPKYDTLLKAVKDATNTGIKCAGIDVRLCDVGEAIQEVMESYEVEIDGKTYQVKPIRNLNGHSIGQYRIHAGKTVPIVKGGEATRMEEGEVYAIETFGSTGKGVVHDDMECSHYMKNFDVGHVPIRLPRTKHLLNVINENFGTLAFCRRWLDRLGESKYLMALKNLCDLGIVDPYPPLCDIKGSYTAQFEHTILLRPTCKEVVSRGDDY

On to `Cc1nc(N2CCOCC2)ccc1-n1c2ccc(F)cc2c2[nH]ncc21` [Example 66, 4-(5-(7-Fluoropyrazolo[4,3-b]indol-4(1H)-yl)-6-methylpyridin-2-yl)morpholine], for which the IC50 against human MetAP2 enzyme [1] was 10 nM; against human MetAP2 enzyme [2], 3.16 nM.

For `Cc1c(-n2c3ccc(F)cc3c3[nH]ncc32)cnc(N)c1C` [Example 68, 5-(7-Fluoropyrazolo[4,3-b]indol-4(1H)-yl)-3,4-dimethylpyridin-2-amine], the IC50 was 10 nM against human MetAP2 enzyme [1] and 3.16 nM at human MetAP2 enzyme [2].

In the case of `COc1ccc(-n2c3ccc(F)cc3c3[nH]ncc32)c(C)n1` [Example 69, 7-Fluoro-4-(6-methoxy-2-methylpyridin-3-yl)-1,4-dihydropyrazolo[4,3-b]indole], the 50% inhibitory concentration (IC50) was 20 nM at human MetAP2 enzyme [1] and 5.01 nM at human MetAP2 enzyme [2].

In the case of `Cc1c(-n2c3ccc(F)cc3c3[nH]ncc32)ccc2ncnn12` [Example 70, 7-Fluoro-4-(5-methyl-[1,2,4]triazolo[1,5-a]pyridin-6-yl)-1,4-dihydropyrazolo[4,3-b]indole], the IC50 was 20 nM against human MetAP2 enzyme [1] and 10 nM against human MetAP2 enzyme [2].

As for `Cc1c(-n2c3ccc(F)cc3c3[nH]ncc32)ccc2[nH]ncc12` [Example 71, 7-Fluoro-4-(4-methyl-1H-indazol-5-yl)-1,4-dihydropyrazolo[4,3-b]indole], the 50% inhibitory concentration (IC50) is 12.6 nM against human MetAP2 enzyme [1] and 10 nM at human MetAP2 enzyme [2].

Take `Cc1nc(N2CCC[C@H]2C(N)=O)ncc1-n1c2ccc(F)cc2c2[nH]ncc21` [Example 72, (2S)-1-(5-(7-Fluoropyrazolo[4,3-b]indol-4(1H)-yl)-4-methylpyrimidin-2-yl)pyrrolidine-2-carboxamide]: the IC50 was 7.94 nM against human MetAP2 enzyme [1] and 3.16 nM against human MetAP2 enzyme [2].

As to `Cc1nc(N2CCC[C@@H]2C(N)=O)ncc1-n1c2ccc(F)cc2c2[nH]ncc21` [Example 73, (2R)-1-(5-(7-Fluoropyrazolo[4,3-b]indol-4(1H)-yl)-4-methylpyrimidin-2-yl)pyrrolidine-2-carboxamide], the concentration for half-maximal inhibition (IC50) at human MetAP2 enzyme [1] is 6.31 nM; on human MetAP2 enzyme [2], 3.16 nM.

Consider `Cc1nc(NCCO)ncc1-n1c2ccc(F)cc2c2[nH]ncc21` [Example 74, 2-((5-(7-Fluoropyrazolo[4,3-b]indol-4(1H)-yl)-4-methylpyrimidin-2-yl)amino)ethanol], for which the 50% inhibitory concentration (IC50) against human MetAP2 enzyme [1] is 10 nM; against human MetAP2 enzyme [2] it was 7.94 nM.

For the compound `Cc1nc(N[C@H](C)CO)ncc1-n1c2ccc(F)cc2c2[nH]ncc21` [Example 75, (2R)-2-((5-(7-Fluoropyrazolo[4,3-b]indol-4(1H)-yl)-4-methylpyrimidin-2-yl)amino)propan-1-ol], the results for the concentration for half-maximal inhibition (IC50) against human MetAP2 enzyme [1] and at human MetAP2 enzyme [2] were 7.94 nM and 5.01 nM, respectively.

On to `Cc1nc(N2C[C@@H](O)[C@H](O)C2)ncc1-n1c2ccc(F)cc2c2[nH]ncc21` [Example 76, (3R,4R)-1-(5-(7-Fluoropyrazolo[4,3-b]indol-4(1H)-yl)-4-methylpyrimidin-2-yl)pyrrolidine-3,4-diol], for which the IC50 at human MetAP2 enzyme [1] was 10 nM; against human MetAP2 enzyme [2], 6.31 nM.

Take `Cc1nc(N2CCO[C@@H](CO)C2)ncc1-n1c2ccc(F)cc2c2[nH]ncc21` [Example 77, ((2R)-4-(5-(7-Fluoropyrazolo[4,3-b]indol-4(1H)-yl)-4-methylpyrimidin-2-yl)morpholin-2-yl)methanol]: the IC50 is 7.94 nM at human MetAP2 enzyme [1] and 10 nM against human MetAP2 enzyme [2].

`Cc1nc(N2CCC(O)CC2)ncc1-n1c2ccc(F)cc2c2[nH]ncc21` [Example 78, 1-(5-(7-Fluoropyrazolo[4,3-b]indol-4(1H)-yl)-4-methylpyrimidin-2-yl)piperidin-4-ol]: the concentration for half-maximal inhibition (IC50) on human MetAP2 enzyme [1] is 15.8 nM; against human MetAP2 enzyme [2], 10 nM.

As to `Cc1nc2c(cc1-n1c3ccc(F)cc3c3[nH]ncc31)ncn2C[C@H](O)CO` [Example 79, (2S)-3-(6-(7-Fluoropyrazolo[4,3-b]indol-4(1H)-yl)-5-methyl-3H-imidazo[4,5-b]pyridin-3-yl)propane-1,2-diol], the half-maximal inhibitory concentration (IC50) against human MetAP2 enzyme [1] is 15.8 nM; at human MetAP2 enzyme [2], 25.1 nM.

For `Cc1nc2c(cc1-n1c3ccc(F)cc3c3[nH]ncc31)ncn2CCCO` [Example 80, 3-(6-(7-Fluoropyrazolo[4,3-b]indol-4(1H)-yl)-5-methyl-3H-imidazo[4,5-b]pyridin-3-yl)propan-1-ol], the values for the concentration for half-maximal inhibition (IC50) against human MetAP2 enzyme [1] and on human MetAP2 enzyme [2] were 20 nM and 31.6 nM, respectively.

Turning to `Cc1nc2c(cc1-n1c3ccc(F)cc3c3[nH]ncc31)[nH]c(=O)n2CCCO` [Example 81, 6-(7-Fluoropyrazolo[4,3-b]indol-4(1H)-yl)-3-(3-hydroxypropyl)-5-methyl-1H-imidazo[4,5-b]pyridin-2(3H)-one], the IC50 on human MetAP2 enzyme [1] is 5.01 nM; on human MetAP2 enzyme [2] it was 6.31 nM.

With `Cc1nc2c(cc1-n1c3ccc(F)cc3c3[nH]ncc31)ncn2CCO` [Example 82, 2-(6-(7-Fluoropyrazolo[4,3-b]indol-4(1H)-yl)-5-methyl-3H-imidazo[4,5-b]pyridin-3-yl)ethanol], the half-maximal inhibitory concentration (IC50) against human MetAP2 enzyme [1] is 7.94 nM; on human MetAP2 enzyme [2] it was 10 nM.

As for `Cc1nc(N2CCO[C@H](CO)C2)ncc1-n1c2ccc(F)cc2c2[nH]ncc21` [Example 83, ((2S)-4-(5-(7-Fluoropyrazolo[4,3-b]indol-4(1H)-yl)-4-methylpyrimidin-2-yl)morpholin-2-yl)methanol], the values for the half-maximal inhibitory concentration (IC50) against human MetAP2 enzyme [1] and on human MetAP2 enzyme [2] were 6.31 nM and 7.94 nM, respectively.

In the case of `O=c1[nH]c(N2CC[C@@H](O)C2)ncc1-n1c2ccc(F)cc2c2[nH]ncc21` [Example 84, (R)-5-(7-Fluoropyrazolo[4,3-b]indol-4(1H)-yl)-2-(3-hydroxypyrrolidin-1-yl)pyrimidin-4(3H)-one], the results for the 50% inhibitory concentration (IC50) on human MetAP2 enzyme [1] and against human MetAP2 enzyme [2] were 20 nM and 10 nM, respectively.

As for `Cc1nc(N)ncc1-n1c2ccc(F)cc2c2[nH]ncc21` [Example 85, 5-(7-Fluoropyrazolo[4,3-b]indol-4(1H)-yl)-4-methylpyrimidin-2-amine], the results for the IC50 against human MetAP2 enzyme [1] and at human MetAP2 enzyme [2] were 15.8 nM and 12.6 nM, respectively.

On to `Cc1nc(NC[C@@H](O)CO)ncc1-n1c2ccc(F)cc2c2[nH]ncc21` [Example 86, (2R)-3-((5-(7-Fluoropyrazolo[4,3-b]indol-4(1H)-yl)-4-methylpyrimidin-2-yl)amino)propane-1,2-diol], for which the 50% inhibitory concentration (IC50) at human MetAP2 enzyme [1] was 7.94 nM; against human MetAP2 enzyme [2] it was 12.6 nM.

With `Cc1nc2[nH]c(=O)[nH]c2cc1-n1c2ccc(F)cc2c2[nH]ncc21` [Example 87, 6-(7-Fluoropyrazolo[4,3-b]indol-4(1H)-yl)-5-methyl-1H-imidazo[4,5-b]pyridin-2(3H)-one], the half-inhibitory concentration (IC50) on human MetAP2 enzyme [1] was 7.94 nM; on human MetAP2 enzyme [2] it was 10 nM.

As for `Cn1nc(C(=O)NCCO)cc1-n1c2ccc(F)cc2c2[nH]ncc21` [Example 88, 5-(7-Fluoropyrazolo[4,3-b]indol-4(1H)-yl)-N-(2-hydroxyethyl)-1-methyl-1H-pyrazole-3-carboxamide], the concentration for half-maximal inhibition (IC50) was 25.1 nM at human MetAP2 enzyme [1] and 10 nM against human MetAP2 enzyme [2].

For the compound `Cc1nc(N2CC(C(N)=O)C2)ncc1-n1c2ccc(F)cc2c2[nH]ncc21` [Example 89, 1-(5-(7-Fluoropyrazolo[4,3-b]indol-4(1H)-yl)-4-methylpyrimidin-2-yl)azetidine-3-carboxamide], the IC50 against human MetAP2 enzyme [1] was 20 nM; on human MetAP2 enzyme [2] it was 10 nM.

As for `Cc1nc2c(cc1-n1c3ccc(F)cc3c3[nH]ncc31)ncn2C[C@@H](O)CO` [Example 90, (2R)-3-(6-(7-Fluoropyrazolo[4,3-b]indol-4(1H)-yl)-5-methyl-3H-imidazo[4,5-b]pyridin-3-yl)propane-1,2-diol], the IC50 against human MetAP2 enzyme [1] is 15.8 nM; at human MetAP2 enzyme [2], 5.01 nM.

Turning to `Cc1nc(N[C@@H](C)CO)ncc1-n1c2ccc(F)cc2c2[nH]ncc21` [Example 91, (2S)-2-((5-(7-Fluoropyrazolo[4,3-b]indol-4(1H)-yl)-4-methylpyrimidin-2-yl)amino)propan-1-ol], the IC50 against human MetAP2 enzyme [1] is 6.31 nM; against human MetAP2 enzyme [2], 12.6 nM.

For `Cc1nc(NC[C@H](C)O)ncc1-n1c2ccc(F)cc2c2[nH]ncc21` [Example 92, (2S)-1-((5-(7-Fluoropyrazolo[4,3-b]indol-4(1H)-yl)-4-methylpyrimidin-2-yl)amino)propan-2-ol], the results for the IC50 at human MetAP2 enzyme [1] and at human MetAP2 enzyme [2] were 10 nM and 7.94 nM, respectively.

With `Cc1nc(NC[C@@H](C)O)ncc1-n1c2ccc(F)cc2c2[nH]ncc21` [Example 93, (2R)-1-((5-(7-Fluoropyrazolo[4,3-b]indol-4(1H)-yl)-4-methylpyrimidin-2-yl)amino)propan-2-ol], the IC50 is 7.94 nM on human MetAP2 enzyme [1] and 6.31 nM at human MetAP2 enzyme [2].

Take `Cc1cc(C(=O)N2CC(O)C2)ncc1-n1c2ccc(F)cc2c2[nH]ncc21` [Example 94, (5-(7-Fluoropyrazolo[4,3-b]indol-4(1H)-yl)-4-methylpyridin-2-yl)(3-hydroxyazetidin-1-yl)methanone]: the concentration for half-maximal inhibition (IC50) is 10 nM against human MetAP2 enzyme [1] and 7.94 nM on human MetAP2 enzyme [2].

In the case of `Cc1cc(C(=O)NCCO)ncc1-n1c2ccc(F)cc2c2[nH]ncc21` [Example 95, 5-(7-Fluoropyrazolo[4,3-b]indol-4(1H)-yl)-N-(2-hydroxyethyl)-4-methylpicolinamide], the IC50 at human MetAP2 enzyme [1] is 31.6 nM; at human MetAP2 enzyme [2], 20 nM.

With `Cc1nc(C(=O)NCCO)ccc1-n1c2ccc(F)cc2c2[nH]ncc21` [Example 96, 5-(7-Fluoropyrazolo[4,3-b]indol-4(1H)-yl)-N-(2-hydroxyethyl)-6-methylpicolinamide], the results for the 50% inhibitory concentration (IC50) against human MetAP2 enzyme [1] and at human MetAP2 enzyme [2] were 20 nM and 12.6 nM, respectively.

For the compound `Cc1nc(C(=O)N2CC(O)C2)ccc1-n1c2ccc(F)cc2c2[nH]ncc21` [Example 97, (5-(7-Fluoropyrazolo[4,3-b]indol-4(1H)-yl)-6-methylpyridin-2-yl)(3-hydroxyazetidin-1-yl)methanone], the 50% inhibitory concentration (IC50) against human MetAP2 enzyme [1] is 10 nM; against human MetAP2 enzyme [2] it was 6.31 nM.

`O=C(NCc1ccccc1)n1c2ccc(F)cc2c2[nH]ncc21` [Example 98, N-Benzyl-7-fluoropyrazolo[4,3-b]indole-4(1H)-carboxamide]: the IC50 was 501 nM against human MetAP2 enzyme [1] and 158 nM on human MetAP2 enzyme [2].

`O=C(C1CC1)n1c2ccc(F)cc2c2[nH]ncc21` [Example 99, Cyclopropyl(7-fluoropyrazolo[4,3-b]indol-4(1H)-yl)methanone]: the IC50 against human MetAP2 enzyme [1] is 794 nM; at human MetAP2 enzyme [2], 316 nM.

As a reminder, the IC50 is the concentration at which inhibition is half-maximal. Higher therefore signals weaker potency in that assay.
